Measured values: patent US20220062340A1, “IMMUNOTHERAPEUTIC METHODS AND COMPOSITIONS” (KING'S COLLEGE LONDON, priority 2018, published 2022)

Key:
Tregs from CD patients = assay: Gene array of expanded Tregs from CD patients; format: cell-based, human; conditions: compared to rapamycin only, n=3
Description: Gene array analyses were carried out using Partek® software with a 1-way ANOVA to assess for differential gene expression.
1) RNA extraction was performed using Qiagen RNEasy mini/micro kits as per manufacturer's instructions. The samples were checked for RNA quality using the Agilent 2100 Bioanalyzer and quantified using the Nanodrop (ND-1000 Spectrophotometer). Samples which passed QC (RIN>8) were chosen such that input amount of each sample was 3 ng.
2) SPIA cDNA was generated using the “Ovation Pico WTA System V2” kit from Nugen, following the manufacturer's instructions.
3) The SPIA cDNA was subjected to a QC check to assess quality (Agilent 2100 Bioanalyzer) and quantity (Nanodrop ND-1000 Spectrophotometer) for the next stage.
4) The SPIA cDNA was fragmented and Biotin-labelled using the “Encore Biotin Module” from Nugen according to the manufacturer's instructions and passed through QC checks to assess fragmentation size (Agilent 2100 Bioanalyzer).
6) Hybridization cocktails were prepared of the fragmented labelled-cDNA according to Nugen's recommendations and hybridized at 45° C. overnight in an oven.
7) The arrays were washed and stained using wash protocol FS450_0002 (Affymetrix protocol recommended for Human Gene 2.0 Arrays on the GeneChip Fluidics station 450.
8) The arrays were scanned using the Affymetrix GeneChip Scanner.
Gene expression analyses were performed on Tregs from CD patients expanded in the presence of Rapa+ATRA, Rapa+RAR568 or rapamycin only (n=3 in each group). […] CD161 has previously been described as a marker of T helper (Th) 17-like Tregs^32. This was not observed in the RAR568-treated group. […] IL-18 Receptor 1 and STAT4 are responsible for Th1 lineage commitment and IFNγ production, both have been independently identified as IBD disease related polymorphisms on GWAS^33-36. CD38 has been identified as a marker associated with mature T cells, signaling reduced proliferation, but an increased ability to produce pro-inflammatory cytokines such as IFNγ^37. Ligation of GPR174 negatively affects Treg accumulation and function^38. No clear difference in transcripts for canonical pathways were identified when ATRA treated cells were compared with RAR568 treated cells.
To assess for off target RARγ effects, we compared the gene expression profiles of RAR568 and ATRA treated cells to a published dataset of RARγ target genes^39. […] Given the efficacy at inducing α4β7 and lack of off target effects, RAR568 fulfilled the target product profile for an agent that could be used for ex vivo Treg expansion for cell-based therapy purposes. Therefore, we probed this effect of RAR568 on Tregs from CD patients in functional in vitro and in vivo trafficking assays.

[1] = system: integrin α4β7 on Treg surface; assay: Induction of integrin α4β7 on bulk Treg surface by RARα agonists (FIG. 6); format: cell-based; conditions: bulk CD4+CD25+CD127− Tregs, 12 days stimulation, reducing agonist concentrations
Description: Bulk Tregs (CD4+CD25+CD127−) Tregs (50,000 per well) were expanded in vitro with reducing concentrations of the agonists. Culture conditions: 2 aCD3/aCD28 beads/cell, 1000IU/mL IL-2, 0.1 nM Rapamycin+Agonist in X-vivo 15. Following 12 days stimulation, cells were stained for CD4, CD25, CD127, FOXP3, Integrin a4, Integrin b7, CD15s, CD161 and acquired on a BD symphony flow cytometer. Data was analysed in Flowjo and Prism.

In the case of `CCOc1c(Cl)cc(C(=O)Nc2ccc(C(=O)O)c(C)c2)cc1OC(C)C` [RAR568], the “transcripts for CD161” value (Tregs from CD patients) is reported as “not observed” and the “induction of integrin α4β7 on Treg surface” value [1] is reported as “comparable effects”.
